Data set [1] addresses P450BM3 variant MERO1 FT (MERO1 L181F V184T) (Priestia megaterium, UniProt P14779, A185T/A291V/A83G/E253G/F206C/F88V/H237Q/L182F/L354V/P143S/R256S/S227R/T176I/V79A). The note with it: role: substrate; cofactor Na2NADP 0.2 eq.; lysate, 22 °C, 16 h, pH 8.0.
Data set [2] addresses P450BM3 variant MERO1 L75A (Priestia megaterium, UniProt P14779, A185V/A291V/A83G/E253G/F206C/F88V/H237Q/L354V/L76A/P143S/R256S/S227R/T176I/V79A). The note with it: role: substrate; cofactor Na2NADP 0.2 eq.; lysate, 22 °C, 16 h, pH 8.0.
A further data set deals with Bsc9 “VR” (Alternaria brassicicola, UniProt D7UTD1, DEL103-114/G116R/H115V). The note with it: role: substrate.
The target in another data set is Wild-type Bsc9 (Alternaria brassicicola, UniProt D7UTD1). It is filed as biochemical. The note with it: for conversion: pH 8.5.
For another data set, the target named is BscD (Pseudocercospora fijiensis, UniProt M2ZB93). Conditions: role: substrate; E. coli lysates.
In a further data set the test system is MoBsc9. In kind it is biochemical, Magnaporthe oryzae. The note with it: for conversion: role: substrate, cosubstrate α-ketoglutarate, 1 mg scale, clarified lysate, 15 °C, 10 h, pH 8.5.
Data set [3] has as its system 14-3-3sigma and the C-terminal of TASK-3. The note with it: structural; listed as cotylenol; cited from earlier work.
In data set [4] the test system is human myeloid leukemia cells. The note with it: listed as cotylenol; cited from earlier work.
In another data set the test system is 14-3-3 PPI. Conditions: cited from earlier work.
The test system of data set [5] is 14-3-3 proteins and their clients. Conditions: cited from earlier work.

Consider eight molecules from US20260366053A1, “SYNTHESIS OF COTYLENIN AND ANALOGS THEREOF FOR THE DEVELOPMENT OF SELECTIVE MODULATORS OF 14-3-3 PROTEIN-PROTEIN INTERACTION” (priority 2022, published 2026).

“Also recorded” adds a separate entry of the source.

Sequence of P450BM3 variant MERO1 FT (MERO1 L181F V184T) (P14779 whole entry V79A/A83G/F88V/P143S/T176I/L182F/A185T/F206C/S227R/H237Q/E253G/R256S/A291V/L354V): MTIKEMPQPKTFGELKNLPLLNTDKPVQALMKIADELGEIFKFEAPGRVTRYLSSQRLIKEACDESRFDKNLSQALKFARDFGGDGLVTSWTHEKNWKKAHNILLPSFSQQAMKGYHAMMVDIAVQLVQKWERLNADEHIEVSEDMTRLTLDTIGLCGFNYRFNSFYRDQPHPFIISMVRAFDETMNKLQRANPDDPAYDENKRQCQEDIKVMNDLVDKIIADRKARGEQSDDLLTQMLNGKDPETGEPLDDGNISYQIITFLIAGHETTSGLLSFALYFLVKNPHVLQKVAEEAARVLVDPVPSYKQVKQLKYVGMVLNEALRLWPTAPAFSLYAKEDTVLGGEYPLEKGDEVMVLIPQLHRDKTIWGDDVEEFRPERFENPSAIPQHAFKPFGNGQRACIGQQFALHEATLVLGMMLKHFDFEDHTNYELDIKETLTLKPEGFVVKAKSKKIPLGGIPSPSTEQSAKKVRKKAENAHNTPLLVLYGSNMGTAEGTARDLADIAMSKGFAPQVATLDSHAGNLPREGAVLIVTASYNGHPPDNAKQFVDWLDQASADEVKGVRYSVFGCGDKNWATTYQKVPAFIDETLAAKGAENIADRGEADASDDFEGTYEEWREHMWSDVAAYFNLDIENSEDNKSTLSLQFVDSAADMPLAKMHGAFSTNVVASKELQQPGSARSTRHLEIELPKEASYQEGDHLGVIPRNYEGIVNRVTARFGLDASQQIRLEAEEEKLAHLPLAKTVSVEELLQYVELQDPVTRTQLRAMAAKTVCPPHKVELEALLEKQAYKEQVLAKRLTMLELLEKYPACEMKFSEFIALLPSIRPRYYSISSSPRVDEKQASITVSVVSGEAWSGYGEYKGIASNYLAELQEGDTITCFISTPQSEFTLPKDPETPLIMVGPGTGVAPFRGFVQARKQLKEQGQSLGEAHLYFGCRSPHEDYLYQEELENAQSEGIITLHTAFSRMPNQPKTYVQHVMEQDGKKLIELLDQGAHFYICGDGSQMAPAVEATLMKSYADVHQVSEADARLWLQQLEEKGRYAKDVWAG
Sequence of P450BM3 variant MERO1 L75A (P14779 whole entry L76A/V79A/A83G/F88V/P143S/T176I/A185V/F206C/S227R/H237Q/E253G/R256S/A291V/L354V): as the sequence (P14779 whole entry V79A/A83G/F88V/P143S/T176I/L182F/A185T/F206C/S227R/H237Q/E253G/R256S/A291V/L354V) above, with L76A, F182L, T185V counted along it
From the text for BscD: The biocatalytic use of BscD and Bsc9 was investigated for the oxidation of 20.

`COCC1=C2C[C@@]3(C)CCC(C(C)C)=C3CC(=O)[C@H](C)[C@@H]2CC1` [Compound 8]: in data set [1], the regioselectivity of oxidation result is “primarily at C4”.
As to `COC[C@@]1(O)CC[C@@H]2/C1=C\[C@@]1(C)CCC(C(C)C)=C1C[C@H](O)[C@@H]2C` [Compound 4], the “regioselectivity of hydroxylation at C13” value in [2] is given as “without any observable regioisomers”.
`COCC1=C2C[C@@]3(C)CCC(C(C)C)=C3[C@@H](O)C(=O)[C@H](C)[C@@H]2CC1` [Compound 20]: the “reaction (in words)” value on Bsc9 “VR” and on BscD was “no reaction” in each case. Moreover, at Wild-type Bsc9, the “conversion (in words)” value is reported as “moderate conversion”. The conversion is listed as 43% at Wild-type Bsc9 and 100% in the data set on MoBsc9.
For the molecule `COC[C@@]1(O)CC[C@@H]2/C1=C\[C@@]1(C)CCC(C(C)C)=C1[C@@H](O)C(=O)[C@@H]2C` [Compound 21], in the data set with MoBsc9 (role: product, relative to Bsc9), the “improvement in assay yield of 21” value was “ca. two-fold”.
In the case of `CC(C)C1=C2[C@@H](O)C(=O)[C@H](C)[C@@H]3CCC(=O)/C3=C/[C@@]2(C)CC1` [Compound 22], the “conversion (in words)” value at Wild-type Bsc9 is “no further conversion”.
For `COC[C@@]1(O)CC[C@@H]2/C1=C\[C@@]1(C)CCC(C(C)C)=C1[C@@H](O)[C@H](O)[C@@H]2C` [Compound 3], the ternary complex formation entry in data set [3] is “form a ternary complex with 14-3-3sigma and the C-terminal of TASK-3; also recorded: a crystal structure of cotylenol in complex with 14-3-3s and a synthetic C-terminal hexapeptide of TASK-3 has also been solved”. Further, the cytotoxicity entry in data set [4] is “cytotoxic toward human myeloid leukemia cells; also recorded: moderate cytotoxicity on human myeloid leukemia cells”.
As for `C=CC(C)(C)OC[C@H]1O[C@H](O[C@@H]2C3=C([C@H](C)COC(C)=O)C[C@H](O)[C@]3(C)/C=C3/[C@@H](COC)CC[C@H]3[C@@H](C)[C@H]2O)[C@H](O)[C@@H](OC(C)=O)[C@@H]1O` [Compound 2], in the data set on 14-3-3 PPI, the phytotoxicity result is “phytotoxins that target the 14-3-3 PPI”. In addition, in [5], the molecular glue activity entry is listed as “capable of acting as molecular glues”.
Take `COCC1=C2C[C@@]3(C)CCC(C(C)C)=C3C[C@H](O)[C@H](C)[C@@H]2CC1` [Compound 23]: at Wild-type Bsc9, the “selectivity (percent ratio of the desired product:total products)” value is listed as 43%. Besides, the conversion on Wild-type Bsc9 came to 37%; in the data set with MoBsc9, 30%.
